Data on one compound can be found in ChEMBL document CHEMBL1150648, “Coproverdine, a novel, cytotoxic marine alkaloid from a new zealand ascidian” (J Nat Prod, 2002).

Format in all cases: functional, cell-based
The subject of one assay is P388. Kind of assay: Cytotoxicity against mouse P388 cells.
In a further assay the test system is A549. Kind of assay: Cytotoxicity against human A549 cells.
A further assay deals with HT-29. Kind of assay: Cytotoxicity against human HT-29 cells.
A further assay relates to SK-MEL-28. In words: Cytotoxicity against human SK-MEL-28 cells.
The test system of the next assay is DU-145. In words: Cytotoxicity against human DU145 cells.

Consider `COC(=O)c1cccc2c3c(n(O)c12)C(O)(C=O)C=CC3=O` (stereo not given) [COPROVERDINE], for which the IC50 (commonly the concentration at which inhibition is half-maximal) in the assay with P388 was determined as 1600 nM; in the assay with A549, 300 nM; in the assay with HT-29 it was 300 nM; with SK-MEL-28 it was 300 nM; in the assay on DU-145 it was 300 nM.
